This note sets out measurements from patent US20220323406A1, “METHODS AND COMPOSITIONS FOR DIFFERENTIATING STEM CELLS” (Massachusetts Institute of Technology, priority 2019, published 2022).

The subject of test [1] is ENR+CD organoids (ISC to Paneth cell differentiation). As to the kind of experiment: Primary screen: basal (non-stimulated) lysozyme secretion LYZ.NS, 2.5-D 384-well ENR+CD organoid differentiation. The format is cell-based, mouse. The conditions noted are these: primary screen; for Z.LYZ.NS: standard z score. An excerpt: (§1) High-throughput screening.
Test [2] has the same test system. As to the kind of experiment: Primary screen: CCh-stimulated lysozyme secretion LYZ.S, 2.5-D 384-well ENR+CD organoid differentiation. Type of test: cell-based, mouse. The note with it: primary screen.
Excerpt: as §1

Test [3] has as its system ENR+CD organoids. Briefly: Primary screen: ATP (CellTiter-Glo 3D, CTG) cell number/viability, 2.5-D 384-well ENR+CD organoids.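 For all read-outs here: compounds given at plating and again on day 3 over a 6-day differentiation from ENR+CV stem-cell-enriched precursors, ATP measured on day 6, plate median as control.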 The conditions noted are these: primary screen; for Z.CTG: standard z score. On the technique in general: Cellular ATP, detected with luciferase, serves as a proxy for viable cell number.

Each structure is given as a SMILES string.

With `OC[C@H]1O[C@@H](c2ccc(Cl)c(Cc3ccc(O[C@H]4CCOC4)cc3)c2)[C@H](O)[C@@H](O)[C@@H]1O` [Empagliflozin (BI 10773)], the Dose.FC.LYZ.NS is listed as −0.006 log2 fold change in test [1] (dose 0.08 uM), −0.034 log2 fold change in test [1] (dose 0.40 uM), −0.009 log2 fold change in test [1] (dose 2.00 uM) and 0.017 log2 fold change in test [1] (dose 10.00 uM). The Z.LYZ.NS is −0.052 in test [1] (dose 0.08 uM), −0.294 in test [1] (dose 0.40 uM), −0.081 in test [1] (dose 2.00 uM) and 0.144 in test [1] (dose 10.00 uM). Further, the Dose.FC.LYZ.S is on record as −0.051 log2 fold change in test [2] (dose 0.08 uM), −0.055 log2 fold change in test [2] (dose 0.40 uM), −0.103 log2 fold change in test [2] (dose 2.00 uM) and −0.022 log2 fold change in test [2] (dose 10.00 uM). In addition, the Dose.FC.CTG in test [3] (dose 0.08 uM) is −0.296 log2 fold change; in test [3] (dose 0.40 uM), −0.075 log2 fold change; in test [3] (dose 2.00 uM) it was −0.192 log2 fold change; in test [3] (dose 10.00 uM), −0.134 log2 fold change. Further, the Z.CTG in test [3] (dose 0.08 uM) is −0.707; in test [3] (dose 0.40 uM) it was −0.178; in test [3] (dose 2.00 uM), −0.458; in test [3] (dose 10.00 uM), −0.320.

Consider `C[C@H](N[C@@H](CCc1ccccc1)C(=O)O)C(=O)N1CCC[C@H]1C(=O)O.O.O` [Enalaprilat Dihydrate], for which the Dose.FC.LYZ.NS is 0.003 log2 fold change in test [1] (dose 0.08 uM), −0.003 log2 fold change in test [1] (dose 0.40 uM), −0.022 log2 fold change in test [1] (dose 2.00 uM) and −0.157 log2 fold change in test [1] (dose 10.00 uM). Moreover, the Z.LYZ.NS in test [1] (dose 0.08 uM) is listed as 0.027; in test [1] (dose 0.40 uM), −0.030; in test [1] (dose 2.00 uM), −0.195; in test [1] (dose 10.00 uM) it was −1.364. Also, the Dose.FC.LYZ.S is reported as −0.001 log2 fold change in test [2] (dose 0.08 uM), 0.111 log2 fold change in test [2] (dose 0.40 uM), −0.095 log2 fold change in test [2] (dose 2.00 uM) and −0.281 log2 fold change in test [2] (dose 10.00 uM). For the same compound, the Dose.FC.CTG is −0.190 log2 fold change in test [3] (dose 0.08 uM), −0.124 log2 fold change in test [3] (dose 0.40 uM), −0.331 log2 fold change in test [3] (dose 2.00 uM) and −0.979 log2 fold change in test [3] (dose 10.00 uM). In addition, the Z.CTG is −0.454 in test [3] (dose 0.08 uM), −0.296 in test [3] (dose 0.40 uM), −0.791 in test [3] (dose 2.00 uM) and −2.338 in test [3] (dose 10.00 uM).

As to `CCN(CC)C(=O)/C(C#N)=C/c1cc(O)c(O)c([N+](=O)[O-])c1` [Entacapone], the Dose.FC.LYZ.NS was 0.136 log2 fold change in test [1] (dose 0.08 uM), 0.012 log2 fold change in test [1] (dose 0.40 uM), 0.085 log2 fold change in test [1] (dose 2.00 uM) and 0.100 log2 fold change in test [1] (dose 10.00 uM). For the same compound, the Z.LYZ.NS in test [1] (dose 0.08 uM) turned out to be 1.183; in test [1] (dose 0.40 uM), 0.102; in test [1] (dose 2.00 uM) it was 0.744; in test [1] (dose 10.00 uM), 0.870. The Dose.FC.LYZ.S in test [2] (dose 0.08 uM) amounted to 0.020 log2 fold change; in test [2] (dose 0.40 uM), 0.024 log2 fold change; in test [2] (dose 2.00 uM), 0.072 log2 fold change; in test [2] (dose 10.00 uM), 0.027 log2 fold change. For the same compound, the Dose.FC.CTG in test [3] (dose 0.08 uM) was −0.115 log2 fold change; in test [3] (dose 0.40 uM), −0.065 log2 fold change; in test [3] (dose 2.00 uM), 0.206 log2 fold change; in test [3] (dose 10.00 uM) it was −0.391 log2 fold change.

Regarding `CNC(=O)c1ccc(N2C(=S)N(c3ccc(C#N)c(C(F)(F)F)c3)C(=O)C2(C)C)cc1F` [Enzalutamide (MDV3100)], the Dose.FC.LYZ.NS in test [1] (dose 0.08 uM) worked out at 0.162 log2 fold change; in test [1] (dose 0.40 uM), 0.166 log2 fold change; in test [1] (dose 2.00 uM), 0.024 log2 fold change; in test [1] (dose 10.00 uM), 0.094 log2 fold change. Also, the Z.LYZ.NS in test [1] (dose 0.08 uM) worked out at 1.411; in test [1] (dose 0.40 uM) it was 1.446; in test [1] (dose 2.00 uM), 0.210; in test [1] (dose 10.00 uM) it was 0.820. For the same compound, the Dose.FC.LYZ.S in test [2] (dose 0.08 uM) was found to be 0.176 log2 fold change; in test [2] (dose 0.40 uM), 0.276 log2 fold change; in test [2] (dose 2.00 uM), 0.077 log2 fold change; in test [2] (dose 10.00 uM), 0.076 log2 fold change. In addition, the Dose.FC.CTG was 0.195 log2 fold change in test [3] (dose 0.08 uM), 0.256 log2 fold change in test [3] (dose 0.40 uM), 0.076 log2 fold change in test [3] (dose 2.00 uM) and 0.146 log2 fold change in test [3] (dose 10.00 uM). Further, the Z.CTG amounted to 0.465 in test [3] (dose 0.08 uM), 0.611 in test [3] (dose 0.40 uM), 0.181 in test [3] (dose 2.00 uM) and 0.348 in test [3] (dose 10.00 uM).

`Cn1cc(C2=C(c3cn(C4CCN(Cc5ccccn5)CC4)c4ccccc34)C(=O)NC2=O)c2ccccc21` [Enzastaurin (LY317615)]: the Dose.FC.LYZ.NS in test [1] (dose 0.08 uM) is recorded as 0.085 log2 fold change; in test [1] (dose 0.40 uM), 0.131 log2 fold change; in test [1] (dose 2.00 uM) it was 0.053 log2 fold change; in test [1] (dose 10.00 uM), −0.116 log2 fold change. Also, the Z.LYZ.NS in test [1] (dose 0.08 uM) is given as 0.744; in test [1] (dose 0.40 uM) it was 1.143; in test [1] (dose 2.00 uM), 0.458; in test [1] (dose 10.00 uM), −1.012. Also, the Dose.FC.LYZ.S in test [2] (dose 0.08 uM) is 0.109 log2 fold change; in test [2] (dose 0.40 uM) it was 0.251 log2 fold change; in test [2] (dose 2.00 uM), 0.053 log2 fold change; in test [2] (dose 10.00 uM) it was −0.226 log2 fold change. Moreover, the Dose.FC.CTG was 0.236 log2 fold change in test [3] (dose 0.08 uM), 0.475 log2 fold change in test [3] (dose 0.40 uM), 0.251 log2 fold change in test [3] (dose 2.00 uM) and −0.081 log2 fold change in test [3] (dose 10.00 uM). Also, the Z.CTG is reported as 0.565 in test [3] (dose 0.08 uM), 1.135 in test [3] (dose 0.40 uM), 0.600 in test [3] (dose 2.00 uM) and −0.194 in test [3] (dose 10.00 uM).

Turning to `CCOc1ccccc1-n1c(C(C)N2CCN(C(=O)COc3ccc(Cl)cc3)CC2)nc2ccccc2c1=O` (stereo not shown) [Erastin], the Dose.FC.LYZ.NS in test [1] (dose 0.08 uM) is on record as 0.157 log2 fold change; in test [1] (dose 0.40 uM), 0.158 log2 fold change; in test [1] (dose 2.00 uM), 0.157 log2 fold change; in test [1] (dose 10.00 uM) it was −0.015 log2 fold change. In addition, the Z.LYZ.NS in test [1] (dose 0.08 uM) was 1.368; in test [1] (dose 0.40 uM), 1.375; in test [1] (dose 2.00 uM) it was 1.367; in test [1] (dose 10.00 uM), −0.133. Besides, the Dose.FC.LYZ.S in test [2] (dose 0.08 uM) is reported as 0.170 log2 fold change; in test [2] (dose 0.40 uM), 0.160 log2 fold change; in test [2] (dose 2.00 uM), 0.106 log2 fold change; in test [2] (dose 10.00 uM), 0.039 log2 fold change. For the same compound, the Dose.FC.CTG in test [3] (dose 0.08 uM) came out at 0.225 log2 fold change; in test [3] (dose 0.40 uM) it was 0.285 log2 fold change; in test [3] (dose 2.00 uM) it was 0.380 log2 fold change; in test [3] (dose 10.00 uM) it was 0.298 log2 fold change.
